In US12150934B2 (Bantam Pharmaceutical, LLC, priority 2016, dated 2024):

Legend:
BJAB cells = assay: BJAB cell proliferation (Cell Titer Glo); assay type: cell-based; conditions: approximately 72 hours; for EC50: Homo sapiens
Description: Cells were seeded in white Corning Costar 96-well assay plates at 2500 cells/well in 50 μL of medium. Serial dilutions of test compounds were made in cell culture medium/FBS+0.2% DMSO, and transferred to assay plates in a volume of 50 μL (DMSO at 0.1% final). Plates were maintained at 37° C. for approximately 72 hours. The effect of compounds on cell proliferation was evaluated using the Cell Titer Glo reagent (Promega), according to the manufacturer's instructions. Briefly, 100 μL of reagent was added per well, and after a 10 minute incubation luminescence values were determined on a plate reader (Tecan F200PRO). The percent of luminescence signal relative to untreated controls was calculated for each compound concentration, and EC50 values were determined from dose response data by non-linear regression analysis using Prism (GraphPad). The mTor inhibitor Torin1 (Liu, et al. (2010) J. Med. Chem. 53, 7146) was used as a control. The data are summarized in the compound table provided above.

HCT116 cells = assay: Effect on glutathione levels with menadione and N-acetyl cysteine; assay type: cell-based; conditions: FIG. 3
Description: Effect on Glutathione levels: BJAB and HCT116 cells were maintained in RPMI medium (Wisent) or McCoy's medium (Wisent), respectively. 5000 cells/well were transferred to clear-bottom 96-well assay plates (Thermo Fisher) in a volume of 50 μL. Plates were incubated overnight at 37° C. in 5% CO2, in an unsealed plastic bag with damp paper. Menadione (Sigma) was dissolved in DMSO and diluted in 10% heat inactivated FBS plus culture medium to 20 μM and 5 μM (0.2% DMSO for each). Culture medium was gently aspirated from cells and replaced by 50 μl diluted menadione or 0.2% DMSO for controls. Test compound was diluted to 80 μM (0.2% DMSO) in 10% heat inactivated FBS plus culture medium then diluted further to 5 μM, 1 μM, 0.5 μM and 0.05 μM (in 0.2% DMSO). 50 μL test compound solution was added to each well, with or without menadione. One μL of an N-acetyl cysteine (Sigma) solution at 100 mM in water was added where indicated. Assay plates were incubated for the times indicated at 37° C. 5% CO2 in opened plastic bag with damp paper. Total glutathione levels were determined according to the procedure described above.

Row | Compound | EC50 (BJAB cells) | other results
1 | Cc1nn(C)cc1-c1c(C)nn(-c2nc(-c3ccc(Cl)c(Cl)c3)c(SC(C)C)s2)c1C(=O)O [Compound 22, 2-(4-(3,4-dichlorophenyl)-5-(isopropylthio)thiazol-2-yl)-2′,5,5′-trimethyl-4,4′-bi(2H-pyrazole)-3-carboxylic acid] | 10 to 25 µM | 
2 | CCC(C)Sc1sc(-n2nc(C)c(-c3cc(C)nc(C)c3)c2C(=O)O)nc1-c1ccc(Cl)c(Cl)c1 (centres unmarked) [Compound 33b] | < 1 µM | 
3 | CSc1sc(-n2nc(C)c(Cc3ccccc3[N+](=O)[O-])c2C(=O)O)nc1-c1ccc(Cl)c(Cl)c1 [Compound 45, 1-(4-(3,4-dichlorophenyl)-5-(methylthio)thiazol-2-yl)-3-methyl-4-(2-nitrobenzyl)-1H-pyrazole-5-carboxylic acid] | 25 to 50 µM | 
4 | Cc1nn(-c2nc(-c3cc(Cl)cc(Cl)c3)c(SC(C)C)s2)c(C(=O)O)c1-c1cc(Cl)cc(Cl)c1 [Compound 150, 4-(3,5-dichlorophenyl)-1-(4-(3,5-dichlorophenyl)-5-(isopropylthio)thiazol-2-yl)-3-methyl-1H-pyrazole-5-carboxylic acid] | 1 to 5 µM | 
5 | Cc1nn(-c2nc(-c3ccc(Cl)c(Cl)c3)c(SC(C)C)s2)c(C(=O)O)c1-c1cccc(F)c1 [Compound 151, 1-(4-(3,4-dichlorophenyl)-5-(isopropylthio)thiazol-2-yl)-4-(3-fluorophenyl)-3-methyl-1H-pyrazole-5-carboxylic acid] |  | EC50 (BJAB cell proliferation) (BJAB cells): A,B
6 | COCCOc1cc(Cl)cc(-c2c(C)nn(-c3nc(-c4ccc(Cl)c(Cl)c4)c(SC(C)C)s3)c2C(=O)O)c1 [Compound 175, 4-(3-chloro-5-(2-methoxyethoxy)phenyl)-1-(4-(3,4-dichlorophenyl)-5-(isopropylthio)thiazol-2-yl)-3-methyl-1H-pyrazole-5-carboxylic acid] | 1 to 5 µM | 
7 | Cc1nn(-c2nc(-c3cccc(F)c3)c(SC(C)C)s2)c(C(=O)O)c1-c1cccc(F)c1 [Compound 201a] | 25 to 50 µM | 
8 | Cc1nn(-c2nc(-c3cc4ccccc4o3)c(SC(C)C)s2)c(C(=O)O)c1-c1cccc(F)c1 [Compound 201b] | 10 to 25 µM | 
9 | Cc1nn(-c2nc(-c3cncc(C#N)c3)c(SC(C)C)s2)c(C(=O)O)c1-c1cccc(F)c1 [Compound 210, 1-(4-(5-cyanopyridin-3-yl)-5-(isopropylthio)thiazol-2-yl)-4-(3-fluorophenyl)-3-methyl-1H-pyrazole-5-carboxylic acid] | > 40 µM | 
10 | Cc1nn(-c2nc(-c3ccc(C#N)cc3)c(SC(C)C)s2)c(C(=O)O)c1-c1cccc(F)c1 [Compound 213, 1-(4-(4-cyanophenyl)-5-(isopropylthio)thiazol-2-yl)-4-(3-fluorophenyl)-3-methyl-1H-pyrazole-5-carboxylic acid] | 5 to 10 µM | 
11 | Cc1nn(-c2nc(-c3ccc(Cl)c(Cl)c3)c(F)s2)c(C(=O)O)c1-c1cccc(F)c1 [Compound 227, 1-(4-(3,4-dichlorophenyl)-5-fluorothiazol-2-yl)-4-(3-fluorophenyl)-3-methyl-1H-pyrazole-5-carboxylic acid] | 10 to 25 µM | 
12 | CCNC(=O)c1cc(-c2nc(-n3nc(C)c(-c4cccc(F)c4)c3C(=O)O)sc2SC(C)C)ccc1Cl [Compound 243, 1-(4-(4-chloro-3-(ethylcarbamoyl)phenyl)-5-(isopropylthio)thiazol-2-yl)-4-(3-fluorophenyl)-3-methyl-1H-pyrazole-5-carboxylic acid] | > 40 µM | 
13 | CC1=CC(=O)c2ccccc2C1=O [menadione] |  | Glutathione levels in HCT116 cells after treatment (HCT116 cells): reduction; Effect of N-acetyl cysteine on the reduction of glutathione (HCT116 cells; presence or absence of N-acetyl cysteine): prevents the reduction
